# Assay results published in patent publication US5352703A, “Antitussive and mucus regulating agent, a process for the preparation thereof and pharmaceutical compositions containing it” (priority 1990, dated 1994).
# “Also recorded” adds a separate entry of the source.
# Assays:
# Assay type in all cases: in vivo
# [1] = Acute pharmacokinetic study in the rat, single administration at equimolecular doses
# Experimental: A study was carried out on the rat, by comparing the kinetic profiles of YS 912 and Ambroxol, after single administration at equimolecular doses.
# NH3 induced cough = NH3 induced cough in Guinea pig; conditions: for antitussive activity in words: NH3 cough, p.o., Ambroxol at twice the YS 912 dose
# Source text: NH3 induced cough in Guinea pig.
# 23-page 219, 1965 with the changes reported by S. Malandrino et al. (Arzneim. Forsch. Drug. Res, 38, 1141, 1988) was used, comparing YS 912, Ambroxol and two standard control drugs: Fominoben and Codeine phosphate.
# bronchial fluid = experiment: Bronchosecretolytic activity (fluorescein amount in bronchial fluid); conditions: for Fluorescein amount in bronchial fluid: means of 12 animals, controls 0.26 ± 0.03; for ED50: po, bronchosecretolytic activity, read-out: DE50 (calculated effective dose 50)
# Source text: The procedure described by H. […] Graziani and P. Cazzulani-(I1 Farmaco Ed. Pr. 36, 167; 1981) was used, comparing YS 912 with Ambroxol at the same weight doses.
# [2] = tested on: Citric acid induced cough; experiment: Citric acid induced cough in Guinea pig; conditions: for Cough strokes after treatment: mean ± S.E.; for Cough strokes after treatment / % inhibition vs. basal (cough strokes): n = 10; for ED50: Cavia porcellus, ip., citric acid cough, read-out: DE50 (effective dose 50, ED50)
# Source text: 1. Citric acid induced cough in Guinea pig. The procedure described by R.A. Turner in "Screening methods in pharmacology-Antitussive agents" -Academic Press. New York-chapt. 23-page 219, 1965, with the changes reported by S. Malandrino et al. (Arzneim. Forsch. Drug. REs, 38, 1141, 1988), was used, comparing YS 912 with Ambroxol.
# [3] = tested on: Cough induced by mechanical stimulation; experiment: Cough induced by mechanical stimulation in dog; conditions: for antitussive activity in words: mechanical stimulation, p.o., Ambroxol at twice the YS 912 dose
# Source text: Cough induced by mechanical stimulation in dog.
# 24 Page 523, was used, comparing YS 912 with Ambroxol, Fominoben and Codeine phosphate.
# [4] = "In steady" pharmacokinetic study in the rat, equimolecular doses during 6 days; conditions: extrapolated to human from rat
# [5] = single administration at equimolecular doses
SMILES,antitussive activity in words (NH3 induced cough),% v.s. controls (fluorescein amount) (bronchial fluid; 12.5 mg/kg p.o.) [%],Fluorescein amount in bronchial fluid (bronchial fluid; 12.5 mg/kg p.o.),% v.s. controls (fluorescein amount) (bronchial fluid; 25.0 mg/kg p.o.) [%],Fluorescein amount in bronchial fluid (bronchial fluid; 25.0 mg/kg p.o.),% v.s. controls (fluorescein amount) (bronchial fluid; 50.0 mg/kg p.o.) [%],Fluorescein amount in bronchial fluid (bronchial fluid; 50.0 mg/kg p.o.),ED50 (bronchial fluid) [mg/kg],Cough strokes after treatment ([2]; 12.5 mg/kg ip.) [cough strokes],% inhibition vs. basal (cough strokes) ([2]; 12.5 mg/kg ip.) [%],Cough strokes after treatment ([2]; 25 mg/kg ip.) [cough strokes],% inhibition vs. basal (cough strokes) ([2]; 25 mg/kg ip.) [%],Cough strokes after treatment ([2]; 50 mg/kg ip.) [cough strokes],% inhibition vs. basal (cough strokes) ([2]; 50 mg/kg ip.) [%],ED50 [2] [mg/kg],antitussive activity in words [3],% inhibition vs. controls (NH3 induced cough; 50 mg/kg p.o.) [%],% inhibition vs. controls ([3]; 50 mg/kg p.o.) [%],also measured
"Nc1c(Br)cc(Br)cc1CNC1CCC(O)CC1 (stereo not shown) [Ambroxol, 2-Amino-3,5-dibromo-N-(4-hydroxycyclohexyl)benzylamine, reference compound]","poorly effective, lacking any statistical significance",23.07,0.32 ± 0.03,26.92,0.33 ± 0.02,42.30,0.37 ± 0.03,95.2,7.40 ± 1.32,19.57,6.20 ± 0.61,35.42,4.80 ± 1.02,46.07,57.2,substantially no effectiveness,,,last time at which it can be dosed in plasma ([1]; in vivo): 12 h; time of plasmatic concentration peak ([1]; in vivo): second; % inhibition vs. controls (NH3 induced cough; 100 mg/kg p.o.): 34.2%; % inhibition vs. controls ([3]; 100 mg/kg p.o.): 13.5%
COc1ccc2c3c1O[C@H]1[C@@H](O)C=C[C@H]4[C@@H](C2)N(C)CC[C@@]341 [Codeina fosfato],,,,,,,,,,,,,,,,,,,% inhibition vs. controls (NH3 induced cough; 5 mg/kg p.o.): 56.1%; % inhibition vs. controls ([3]; 5 mg/kg p.o.): 63.1%
CN(CC(=O)N1CCOCC1)Cc1c(Cl)cccc1NC(=O)c1ccccc1 [Fominoben],,,,,,,,,,,,,,,,,63.4,59.0,
"O=C(Nc1c(Br)cc(Br)cc1CNC1CCC(O)CC1)c1ccccc1 (stereo not shown) [YS 912, 2-benzoylamino-3,5-dibromo-N-(4-hydroxycyclohexyl)benzylamine]",high activity,19.23,0.31 ± 0.03,30.76,0.34 ± 0.04,46.15,0.38 ± 0.04,60,2.90 ± 0.60,62.34,2.30 ± 0.54,75.00,2.00 ± 0.47,78.95,4.81,comparable to that of the two control compounds,61.0,54.0,"Tmax ([1]; plasma, single administration, read-out: time of plasmatic concentration peak (converted)): 30 min; adsorption (absorption) ([1]; single administration): fast and high; main metabolite ([1]; single administration): the main metabolite being Ambroxol; AUC compared with Ambroxol [1, 5]: higher value being evidenced also in the case of the AUC; plasmatic half-life, increase over that of Ambroxol [1, 5]: 30%; metabolism: kinetic ([1]; single administration, after the 6th hour): slower kinetic; plasmatic concentrations in human clinic, extrapolated, two daily YS 912 vs three daily Ambroxol administrations [4]: two daily administrations of YS 912 allow to achieve plasmatic concentrations (and therefore therapeutical effectiveness) which can be compared with those obtained after three daily administrations of Ambroxol; bronchosecretolytic effectiveness in words (bronchial fluid; p.o.): more favourable; antitussive activity in words ([2]; 12.5, 25, 50 mg/kg ip., compared with Ambroxol): remarkable antitussive activity; also recorded: higher than that of Ambroxol; potency by ED50 relative to Ambroxol ([2]; ratio to Ambroxol): 14 times"
